Data published in patent US12371454B2, “Cyclic peptide compound having Kras inhibitory action” (priority 2019, dated 2025).
Starred links: 1 amine or outer side, 2 acyl side, 3 side chain; linkers in the order of their positions; H or OH if unused. Positions of bridges follow the written chain, without caps; N, C: chain ends. Non-standard residues stand in square brackets, D forms with d. Residues, ends and D or L forms follow the SMILES beside them. *: point of attachment. hPhe(3-Cl-4-CF3) = N[C@@H](CCc1ccc(C(F)(F)F)c(Cl)c1)C(=O)O; NMePhe(4-Me) = CN[C@@H](Cc1ccc(C)cc1)C(=O)O; NMedβ3hAla = C[C@H](CC(=O)[*:2])N(C)[*:1]; NMeGly(cPent) = CN[C@H](C(=O)O)C1CCCC1; NMe3Pal = CN[C@@H](Cc1cccnc1)C(=O)O; NMeCha = CN[C@@H](CC1CCCCC1)C(=O)O; Hyp = O=C(O)[C@@H]1C[C@@H](O)CN1; NMeAhp(2) = CCCCC[C@H](NC)C(=O)O; NMeChg = CN[C@H](C(=O)O)C1CCCCC1; NMeI = CC[C@H](C)[C@H](NC)C(=O)O; NMeD = CN[C@@H](CC(=O)O)C(=O)O; NMeL = CN[C@@H](CC(C)C)C(=O)O; NMeNle = CCCC[C@H](NC)C(=O)O; NMeV = CN[C@H](C(=O)O)C(C)C; NMeS = CN[C@@H](CO)C(=O)O; Morpholide = C1CN(*)CCO1; NMeA = CN[C@@H](C)C(=O)O; Piperidide = C1CCN(*)CC1; Pyrrolidide = C1CCN(*)C1; Ac5c = NC1(C(=O)O)CCCC1; Aze = O=C(O)[C@@H]1CCN1; Sar = CNCC(=O)O; Propyl = CCC*

Tested on: Human pancreatic cancer cell line AsPC-1
Assay: Measurement of AsPC-1 cell growth inhibition (AsPC-1 CGI)
Format: cell-based
Conditions: 96 h
Procedure, shortened: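 AsPC-1 cells in 15% FBS RPMI-1640 were exposed to test compound for 96 hours at 37° C, with CellTiter-Glo as endpoint.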

Row | SMILES | IC50
1 | CC[C@H](C)[C@@H]1NC(=O)[C@H](CC(C)C)N(C)C(=O)C[C@@H](C(=O)N(C)C)N(C)C(=O)[C@H](C2CCCCC2)N(C)C(=O)C2(CCCC2)NC(=O)[C@@H]2CCCN2C(=O)[C@H](CCc2ccc(C(F)(F)F)c(Cl)c2)NC(=O)CN(C)C(=O)[C@H](CC2CCCCC2)N(C)C(=O)[C@@H]2CCN2C(=O)[C@H](C)N(C)C1=O [Compound 1675] ([NMeL]I[NMeA][Aze][NMeCha][Sar][hPhe(3-Cl-4-CF3)]P[Ac5c][NMeChg][NMeD]-NMe2; lactam N-11) | 20 to 50 nM
2 | CC[C@H](C)[C@@H]1NC(=O)[C@H](CC(C)C)N(C)C(=O)C[C@@H](C(=O)N2CCCC2)N(C)C(=O)[C@H](C2CCCC2)N(C)C(=O)C2(CCCC2)NC(=O)[C@@H]2CCCN2C(=O)[C@H](CCc2ccc(C(F)(F)F)c(Cl)c2)NC(=O)CN(C)C(=O)[C@H](CC2CCCCC2)N(C)C(=O)[C@@H]2CCN2C(=O)[C@H](C)N(C)C1=O [Compound 1679] ([NMeL]I[NMeA][Aze][NMeCha][Sar][hPhe(3-Cl-4-CF3)]P[Ac5c][NMeGly(cPent)][NMeD]-Pyrrolidide; lactam N-11) | 20 to 50 nM
3 | CC[C@H](C)[C@@H]1NC(=O)[C@H](CC(C)C)N(C)C(=O)C[C@@H](C(=O)N(C)C)N(C)C(=O)[C@H](C2CCCCC2)N(C)C(=O)C2(CCCC2)NC(=O)[C@@H]2CCCN2C(=O)[C@H](CCc2ccc(C(F)(F)F)c(Cl)c2)NC(=O)CN(C)C(=O)[C@H](Cc2ccc(C)cc2)N(C)C(=O)[C@@H]2CCN2C(=O)[C@H](C)N(C)C1=O [Compound 1685] ([NMeL]I[NMeA][Aze][NMePhe(4-Me)][Sar][hPhe(3-Cl-4-CF3)]P[Ac5c][NMeChg][NMeD]-NMe2; lactam N-11) | 20 to 50 nM
4 | CC[C@H](C)[C@@H]1NC(=O)[C@H](CC(C)C)N(C)C(=O)C[C@@H](C(=O)N2CCCC2)N(C)C(=O)[C@H](C2CCCCC2)N(C)C(=O)C2(CCCC2)NC(=O)[C@H](Cc2cccnc2)N(C)C(=O)[C@H](CCc2ccc(C(F)(F)F)c(Cl)c2)NC(=O)CN(C)C(=O)[C@H](CC2CCCCC2)N(C)C(=O)CN(C)C(=O)CN(C)C1=O [Compound 1693] ([NMeL]I[Sar][Sar][NMeCha][Sar][hPhe(3-Cl-4-CF3)][NMe3Pal][Ac5c][NMeChg][NMeD]-Pyrrolidide; lactam N-11) | 100 to 500 nM
5 | CCCCC[C@H]1C(=O)N[C@@H]([C@@H](C)CC)C(=O)N(C)[C@@H](C)C(=O)N2CC[C@H]2C(=O)N(C)[C@@H](CC2CCCCC2)C(=O)N(C)CC(=O)N[C@@H](CCc2ccc(C(F)(F)F)c(Cl)c2)C(=O)N2CCC[C@H]2C(=O)NC2(CCCC2)C(=O)N(C)[C@@H](C(C)C)C(=O)N(C)[C@H](C(=O)N2CCCCC2)CC(=O)N1C [Compound 1705] ([NMeAhp(2)]I[NMeA][Aze][NMeCha][Sar][hPhe(3-Cl-4-CF3)]P[Ac5c][NMeV][NMeD]-Piperidide; lactam N-11) | 100 to 500 nM
6 | CCCC[C@H]1C(=O)N(C)CC(=O)N[C@@H](CCc2ccc(C(F)(F)F)c(Cl)c2)C(=O)N2CCC[C@H]2C(=O)NC2(CCCC2)C(=O)N(C)[C@@H](C(C)C)C(=O)N(C)[C@H](C(=O)N2CCCCC2)CC(=O)N(C)[C@@H](CC(C)C)C(=O)N[C@@H]([C@@H](C)CC)C(=O)N(C)[C@@H](C)C(=O)N2CC[C@H]2C(=O)N1C [Compound 1712] ([NMeL]I[NMeA][Aze][NMeNle][Sar][hPhe(3-Cl-4-CF3)]P[Ac5c][NMeV][NMeD]-Piperidide; lactam N-11) | 100 to 500 nM
7 | CC[C@H](C)[C@@H]1NC(=O)[C@H](CC(C)C)N(C)C(=O)C[C@@H](C)N(C)C(=O)[C@H](C2CCCC2)N(C)C(=O)C2(CCCC2)NC(=O)[C@@H]2CCCN2C(=O)[C@H](CCc2ccc(C(F)(F)F)c(Cl)c2)NC(=O)CN(C)C(=O)[C@H](CC2CCCCC2)N(C)C(=O)[C@@H]2CCN2C(=O)[C@H](C)N(C)C1=O [Compound 1717] (cyclo([Ac5c][NMeGly(cPent)][NMedβ3hAla][NMeL]I[NMeA][Aze][NMeCha][Sar][hPhe(3-Cl-4-CF3)]P)) | 50 to 100 nM
8 | CC[C@H](C)[C@@H]1NC(=O)[C@H](CC(C)C)N(C)C(=O)C[C@@H](C(=O)N2CCCCC2)N(C)C(=O)[C@H]([C@@H](C)CC)N(C)C(=O)C2(CCCC2)NC(=O)[C@@H]2CCCN2C(=O)[C@H](CCc2ccc(C(F)(F)F)c(Cl)c2)NC(=O)CN(C)C(=O)[C@H](CC2CCCCC2)N(C)C(=O)[C@@H]2CCN2C(=O)[C@H](C)N(C)C1=O [Compound 1722] ([NMeL]I[NMeA][Aze][NMeCha][Sar][hPhe(3-Cl-4-CF3)]P[Ac5c][NMeI][NMeD]-Piperidide; lactam N-11) | 20 to 50 nM
9 | CC[C@H](C)[C@@H]1NC(=O)[C@H](CC(C)C)N(C)C(=O)C[C@@H](C(=O)N2CCCCC2)N(C)C(=O)[C@H]([C@@H](C)CC)N(C)C(=O)C2(CCCC2)NC(=O)[C@@H]2CCCN2C(=O)[C@H](CCc2ccc(C(F)(F)F)c(Cl)c2)NC(=O)CN(C)C(=O)[C@H](Cc2ccc(C)cc2)N(C)C(=O)[C@@H]2CCN2C(=O)[C@H](C)N(C)C1=O [Compound 1727] ([NMeL]I[NMeA][Aze][NMePhe(4-Me)][Sar][hPhe(3-Cl-4-CF3)]P[Ac5c][NMeI][NMeD]-Piperidide; lactam N-11) | 20 to 50 nM
10 | CC[C@H](C)[C@@H]1NC(=O)[C@H](CC(C)C)N(C)C(=O)C[C@@H](C(=O)N2CCCCC2)N(C)C(=O)[C@H](C(C)C)N(C)C(=O)C2(CCCC2)NC(=O)[C@@H]2CCCN2C(=O)[C@H](CCc2ccc(C(F)(F)F)c(Cl)c2)NC(=O)CN(C)C(=O)[C@H](C(C)C)N(C)C(=O)[C@@H]2CCN2C(=O)[C@H](C)N(C)C1=O [Compound 1737] ([NMeL]I[NMeA][Aze][NMeV][Sar][hPhe(3-Cl-4-CF3)]P[Ac5c][NMeV][NMeD]-Piperidide; lactam N-11) | 100 to 500 nM
11 | CCO[C@@H]1C[C@H]2C(=O)NC3(CCCC3)C(=O)N(C)[C@@H](CC(C)C)C(=O)N(C)[C@H](C(=O)N3CCCC3)CC(=O)N(C)[C@@H](CC(C)C)C(=O)N[C@@H]([C@@H](C)CC)C(=O)N(C)CC(=O)N(C)CC(=O)N(C)[C@@H](CC3CCCCC3)C(=O)N(C)CC(=O)N[C@@H](CCc3ccc(C(F)(F)F)c(Cl)c3)C(=O)N2C1 [Compound 1748] ([NMeL]I[Sar][Sar][NMeCha][Sar][hPhe(3-Cl-4-CF3)][Hyp](Et)[Ac5c][NMeL][NMeD]-Pyrrolidide; lactam N-11) | 50 to 100 nM
12 | CC[C@H](C)[C@@H]1NC(=O)[C@H](CC(C)C)N(C)C(=O)C[C@@H](C(=O)N2CCOCC2)N(C)C(=O)[C@H](C(C)C)N(C)C(=O)C2(CCCC2)NC(=O)[C@@H]2CCCN2C(=O)[C@H](CCc2ccc(C(F)(F)F)c(Cl)c2)NC(=O)CN(C)C(=O)[C@H](CC2CCCCC2)N(C)C(=O)[C@@H]2CCN2C(=O)CN(C)C1=O [Compound 1758] ([NMeL]I[Sar][Aze][NMeCha][Sar][hPhe(3-Cl-4-CF3)]P[Ac5c][NMeV][NMeD]-Morpholide; lactam N-11) | 100 to 500 nM
13 | CCCOC[C@H]1C(=O)N[C@@H]([C@@H](C)CC)C(=O)N(C)[C@@H](C)C(=O)N2CC[C@H]2C(=O)N(C)[C@@H](CC2CCCCC2)C(=O)N(C)CC(=O)N[C@@H](CCc2ccc(C(F)(F)F)c(Cl)c2)C(=O)N2CCC[C@H]2C(=O)NC2(CCCC2)C(=O)N(C)[C@@H](C(C)C)C(=O)N(C)[C@H](C(=O)N2CCCCC2)CC(=O)N1C [Compound 1763] ([NMeS](Propyl)I[NMeA][Aze][NMeCha][Sar][hPhe(3-Cl-4-CF3)]P[Ac5c][NMeV][NMeD]-Piperidide; lactam N-11) | 100 to 500 nM
